One experiment concerns HT1080 cells. In words: R3616 viral yield in HT1080 cells with MEK inhibitor PD98059 or DMSO. It is filed as cell-based, human. The following applies: R3616 1 PFU/cell. Here is the method: (§1) Inhibitor studies—For experiments employing the known MEK inhibitor, PD98059, HT1080 cells were starved over night in serum-free medium and then exposed to 40 μM of PD98059 (EMD Biosciences, San Diego, Calif.), or DMSO (1:1000 dilution) 6 hours prior to, and during, infection. At 12 hours post-infection, whole cell lysates were created as described above for immunoblotting.
Finally, to determine if MEK inhibition affects viral replication, DMSO or PD98059 (40 μM) was added to replicate cultures of HT1080 cells 6 hours prior to, and during, infection with R3616 (1 PFU/cell). The cells were harvested at 36 hours post-infection and viral yields were measured by plaque assays on Vero cell monolayers.

The test system of experiment [1] is HT1080 cells infected with R3616. The experiment can be described thus: Immunoblot of viral proteins and phosphorylated PKR in R3616-infected HT1080 cells treated with PD98059. Format: cell-based, human. How it is done: Immunoblotting—Experiments to analyze the accumulation of viral proteins and phosphorylation of ERK, PKR and eIF-2α were performed on whole-cell lysates harvested on ice at either 12 or 14 hours post-infection with lysis buffer, sonicated for 10 seconds, and clarified by centrifugation. Total protein from the supernatant was quantified by the Bradford method and 20 μg of equilibrated protein was subjected to electrophoresis in 12% or 7.5% (vol/vol) denaturing polyacrylamide gels, transferred to PVDF membranes (Millipore Corporation), blocked, and reacted with primary antibody followed by appropriate secondary antibody.
as §1
To determine if MEK mediates the observed mutant Ras-dependent suppression of PKR activation and resultant accumulation of viral proteins in HT1080 cells infected with mutant virus R3616, the relative expressions of representative α (ICP27), β (UL42) and γ2(glycoprotein C) viral proteins in cells treated with a specific chemical inhibitor of MEK-1 (PD98059) were compared. Replicate cultures of HT1080 cells were serum-starved overnight prior to exposure to equal volumes of DMSO or PD98059 (40 μM) for 6 hours prior to infection with R3616 mutant virus (10 PFU/cell). DMSO or drug treatment was then continued until the cells were harvested at 12 hours post-infection. The cells were then lysed and the lysates were subjected to electrophoresis in denaturing polyacrylamide gels, followed by transferring to PVDF membranes and reacting with antibody to ICP27, UL42, or gC. […] To test whether the decrease in the accumulation of gC correlated with activation of PKR, the electrophoretically separated lysates were also probed with antibody to the auto-phosphorylated form of PKR (P-Thr446).
For orientation: A western blot detects proteins with antibodies after separation by electrophoresis.

Setting [2] is: PD98059 40 μM, R3616 10 PFU/cell, 12 hours post-infection.

This note sets out measurements from US20110274661A1, “Attentuated Herpesvirus Encoding a Mek Pathway Polypeptide” (The University of Chicago, priority 2008, published 2011).

As to `COc1cccc(-c2cc(=O)c3ccccc3o2)c1N` [PD98059], in the experiment on HT1080 cells (PD98059 40 μM 6 hours prior to and during infection, 36 hours post-infection), the “yield of R3616 mutant virus in the presence of PD98059” value is reported as 1.67×10^5 PFU/ml. In the experiment on HT1080 cells (PD98059 40 μM, 36 hours), the “fold lower yield of R3616 with PD98059 than with DMSO” value is given as “approximately 15 fold”. Besides, the “amount of activated PKR (P-Thr446)” value in experiment [1] (PD98059 40 μM prior to and during infection with R3616) is recorded as “increased the amount of activated PKR”. Moreover, in experiment [1] (setting [2]), the “accumulation of ICP27 and UL42 proteins” value is reported as “slight effect”; the “amounts of gC that accumulated” value is recorded as “very dramatic decrease”.
